Earlier results in paper PMC3433420 (PLoS ONE, 2012).
Like-named read-outs stand apart in the source and are kept apart here.

Target: SH2 and PTB domains
Details: cited from earlier work
Excerpt: Supplement pone.0044471.s022.xlsx, sheet "Most recent PM interactions" | column: Kd || Supplement pone.0044471.s022.xlsx, sheet "All original PM interactions" | column: Kd

## PKQEpYLNPVEENd [ErbB4 pY1162, N-terminally rhodamine-labeled 13-mer phosphopeptide]
Protein ABL2, all original PM interactions, ref Jones et al. 2006 / Kaushansky et al. Chem and Biol 2008
  Kd: 320 nM
Protein ABL2, ref Jones et al. 2006 / Kaushansky et al. Chem and Biol 2008
  Kd: 280 nM
Protein CRK, all original PM interactions, ref Jones et al. 2006 / Kaushansky et al. Chem and Biol 2008
  Kd: 2000 nM
Protein CRKL, all original PM interactions, ref Jones et al. 2006 / Kaushansky et al. Chem and Biol 2008
  Kd: 2000 nM
Protein NCK2, all original PM interactions, ref Jones et al. 2006 / Kaushansky et al. Chem and Biol 2008
  Kd: 2000 nM
Protein PIK3R2-N, all original PM interactions, ref Jones et al. 2006 / Kaushansky et al. Chem and Biol 2008
  Kd: 2000 nM
Protein PIK3R3-NC, all original PM interactions, ref Jones et al. 2006 / Kaushansky et al. Chem and Biol 2008
  Kd: 2000 nM
Protein PLCG1-C, all original PM interactions, ref Jones et al. 2006 / Kaushansky et al. Chem and Biol 2008
  Kd: 2000 nM
Protein PLCG1-NC, all original PM interactions, ref Jones et al. 2006 / Kaushansky et al. Chem and Biol 2008
  Kd: 2000 nM
Protein PTPN11-N, all original PM interactions, ref Jones et al. 2006 / Kaushansky et al. Chem and Biol 2008
  Kd: 2000 nM
Protein RASA1-N, all original PM interactions, ref Jones et al. 2006 / Kaushansky et al. Chem and Biol 2008
  Kd: 2000 nM
Protein RASA1-N, ref Jones et al. 2006 / Kaushansky et al. Chem and Biol 2008
  Kd: 980 nM
Protein SLA, all original PM interactions, ref Jones et al. 2006 / Kaushansky et al. Chem and Biol 2008
  Kd: 2000 nM
Protein SYK-NC, all original PM interactions, ref Jones et al. 2006 / Kaushansky et al. Chem and Biol 2008
  Kd: 2000 nM
Protein VAV1, all original PM interactions, ref Jones et al. 2006 / Kaushansky et al. Chem and Biol 2008
  Kd: 2000 nM
Protein VAV2, all original PM interactions, ref Jones et al. 2006 / Kaushansky et al. Chem and Biol 2008
  Kd: 2000 nM
Protein VAV2, ref Jones et al. 2006 / Kaushansky et al. Chem and Biol 2008
  Kd: 100 nM
Protein VAV3, all original PM interactions, ref Jones et al. 2006 / Kaushansky et al. Chem and Biol 2008
  Kd: 2000 nM

## ALESILHRIpYTHQSDVWd [ErbB1 891]
Protein HSH2D, most recent PM interactions, ref Kaushansky et al. Mol Biosys 2008
  Kd: 1130 nM
Protein TNS4, most recent PM interactions, ref Kaushansky et al. Mol Biosys 2008
  Kd: 300 nM

## KLLGAEEKEpYHAEGGKVd [ErbB1 869]
Protein ABL2, most recent PM interactions, ref Jones et al. 2006 / Kaushansky et al. Mol Biosys 2008 / Kaushansky et al. Chem and Biol 2008
  Kd: 1080 nM
Protein BLK, most recent PM interactions, ref Jones et al. 2006 / Kaushansky et al. Mol Biosys 2008 / Kaushansky et al. Chem and Biol 2008
  Kd: 1710 nM
